Assay results published in patent US20140342025A1, “ARJUNOLIC ACID FOR INCREASING SEBUM PRODUCTION” (EVONIK INDUSTRIES AG, priority 2011, published 2014).

Assay: Percutaneous absorption study on a pig skin model
Assay type: in vitro ADME
Settings: arjunolic acid in combination with 1,2-pentanediol in cosmetic formulation vs. formulation without 1,2-pentanediol; FIG. 2
Procedure: In practice, the study was performed in accordance with a current protocol, as described for example in S. Richert, A. Schrader, K. Schrader, Int. J. Cosmet. Sci. 2003, 25, 5-13.

For `CC1(C)CC[C@]2(C(=O)O)CC[C@]3(C)C(=CC[C@@H]4[C@@]5(C)C[C@@H](O)[C@H](O)[C@@](C)(CO)[C@@H]5CC[C@]43C)[C@@H]2C1` [arjunolic acid], the “bioavailability (skin penetration) as a function of solvent” value was “increase in bioavailability”.
